From the supplement of paper PMC13207355

Tests used:
Conditions in all cases: exposure time: 72 h
[1] = test system: E31 (patient-derived glioblastoma stem cells of proneural subtype); experiment: surviving fraction (nuclei count normalised to DMSO); higher = more cells surviving (less toxic)
[2] = test system: FT3469 (normal neural stem cell line); experiment: as above
[3] = test system: E34 (patient-derived glioblastoma stem cells of proneural subtype); experiment: as above
[4] = test system: E21 (patient-derived glioblastoma stem cells of mesenchymal subtype); experiment: as above
[5] = test system: E28 (patient-derived glioblastoma stem cells of classical subtype); experiment: as above
[6] = test system: E57 (patient-derived glioblastoma stem cells of mesenchymal subtype); experiment: as above
[7] = test system: E13 (patient-derived glioblastoma stem cells of classical subtype); experiment: as above
[8] = test system: E31; experiment: phenotypic distance (Euclidean, principal components) from DMSO controls (arbitrary units); higher = stronger morphological change
[9] = test system: FT3469; experiment: as above
[10] = test system: E34; experiment: as above
[11] = test system: E21; experiment: as above
[12] = test system: E28; experiment: as above
[13] = test system: E57; experiment: as above
[14] = test system: E13; experiment: as above
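Wherever phenotypic distance (Euclidean, principal components) from DMSO controls is given: cell Painting imaging in 384-well plates, CellProfiler features reduced to at least 20 principal components, Euclidean distance versus same-plate DMSO vehicle wells (0.1% v/v), median over six images per well.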
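Wherever surviving fraction (nuclei count normalised to DMSO) is given: nuclei counted by high-content imaging of Hoechst-stained cells in laminin-coated 384-well plates, relative to 0.1% DMSO vehicle wells, with staurosporine as cell-death control.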

O=C1CCc2cc(OCCCCc3nnnn3C3CCCCC3)ccc2N1 [Cilostazol]
Conditions | phenotypic distance | surviving fraction
[1], 4.1 nM | – | 0.919
[1], 12.3 nM | – | 1.04
[1], 37 nM | – | 0.905
[1], 111.1 nM | – | 0.98
[1], 333.3 nM | – | 0.963
[1], 1000 nM | – | 0.832
[1], 3000 nM | – | 0.832
[2], 4.1 nM | – | 1.03
[2], 12.3 nM | – | 1.03
[2], 37 nM | – | 0.96
[2], 111.1 nM | – | 1.02
[2], 333.3 nM | – | 0.949
[2], 1000 nM | – | 1.16
[2], 3000 nM | – | 0.891
[3], 4.1 nM | – | 0.904
[3], 12.3 nM | – | 1.1
[3], 37 nM | – | 0.938
[3], 111.1 nM | – | 0.937
[3], 333.3 nM | – | 1.05
[3], 1000 nM | – | 1.04
[3], 3000 nM | – | 0.959
[4], 4.1 nM | – | 0.933
[4], 12.3 nM | – | 1.09
[4], 37 nM | – | 1.03
[4], 111.1 nM | – | 1.04
[4], 333.3 nM | – | 0.973
[4], 1000 nM | – | 0.949
[4], 3000 nM | – | 0.934
[5], 4.1 nM | – | 0.916
[5], 12.3 nM | – | 1.13
[5], 37 nM | – | 0.892
[5], 111.1 nM | – | 1.2
[5], 333.3 nM | – | 1.01
[5], 1000 nM | – | 1.12
[5], 3000 nM | – | 0.914
[6], 4.1 nM | – | 0.991
[6], 12.3 nM | – | 0.969
[6], 37 nM | – | 0.975
[6], 111.1 nM | – | 1.04
[6], 333.3 nM | – | 0.91
[6], 1000 nM | – | 0.839
[6], 3000 nM | – | 0.817
[7], 4.1 nM | – | 0.989
[7], 12.3 nM | – | 1.04
[7], 37 nM | – | 1.01
[7], 111.1 nM | – | 0.931
[7], 333.3 nM | – | 0.933
[7], 1000 nM | – | 0.98
[7], 3000 nM | – | 0.897
[8], 4.1 nM | 0.904 | –
[8], 12.3 nM | 0.814 | –
[8], 37 nM | 0.863 | –
[8], 111.1 nM | 0.598 | –
[8], 333.3 nM | 0.893 | –
[8], 1000 nM | 0.881 | –
[8], 3000 nM | 0.868 | –
[9], 4.1 nM | 0.483 | –
[9], 12.3 nM | 0.448 | –
[9], 37 nM | 0.352 | –
[9], 111.1 nM | 0.643 | –
[9], 333.3 nM | 3.23 | –
[9], 1000 nM | 0.826 | –
[9], 3000 nM | 0.541 | –
[10], 4.1 nM | 0.293 | –
[10], 12.3 nM | 0.701 | –
[10], 37 nM | 0.573 | –
[10], 111.1 nM | 1.28 | –
[10], 333.3 nM | 0.55 | –
[10], 1000 nM | 0.46 | –
[10], 3000 nM | 0.733 | –
[11], 4.1 nM | 0.676 | –
[11], 12.3 nM | 1.17 | –
[11], 37 nM | 1.02 | –
[11], 111.1 nM | 1.46 | –
[11], 333.3 nM | 0.998 | –
[11], 1000 nM | 1.13 | –
[11], 3000 nM | 1.15 | –
[12], 4.1 nM | 0.648 | –
[12], 12.3 nM | 0.777 | –
[12], 37 nM | 0.65 | –
[12], 111.1 nM | 1.01 | –
[12], 333.3 nM | 1.82 | –
[12], 1000 nM | 0.846 | –
[12], 3000 nM | 0.458 | –
[13], 4.1 nM | 0.508 | –
[13], 12.3 nM | 0.665 | –
[13], 37 nM | 0.802 | –
[13], 111.1 nM | 0.893 | –
[13], 333.3 nM | 1.16 | –
[13], 1000 nM | 1.49 | –
[13], 3000 nM | 1.42 | –
[14], 4.1 nM | 0.5 | –
[14], 12.3 nM | 0.664 | –
[14], 37 nM | 1.06 | –
[14], 111.1 nM | 0.612 | –
[14], 333.3 nM | 0.287 | –
[14], 1000 nM | 0.5 | –
[14], 3000 nM | 0.553 | –
